Where two headings read alike, the source gives them in different places.
Legend:
[1] = test system: MCF-7 (breast cancer cell); test: MTT antiproliferative assay (cell growth %, GI50), MCF-7; assay type: cell-based; design: Cell growth (%) MCF-7: unit of the concentration uncertain; details: for activity at 4000 µg/mL / activity at 20000 µg/mL / GI50: Homo sapiens; for activity at 4000 µg/mL: 4 mg/ml; for activity at 4000 µg/mL / activity at 20000 µg/mL / Cell growth (%) MCF-7: 48 hours, MTT; for activity at 20000 µg/mL: 20 mg/ml; for SI MCF-7: GI50 MRC-5 / GI50 MCF-7
Protocol: (§1) Antiproliferative activities of the compounds of this invention were evaluated substantially according to the method as described in Tseng, C. […] The cells were treated with the test compounds, i.e., the compounds of this invention (in dimethylsulfoxide (DMSO)), or DMSO for 48 hours.
(§2) Before and after the treatment with the test compounds or DMSO, 3-(4,5-dimethylthiazol-2-yl)-2,5-diphenyltetrazolium bromide (MTT, 2 mg/mL, 100 μL) was added to each of the cultures, followed by cultivation for 2 hours. The resultant formazan was dissolved by the addition of DMSO. Absorbance at 570 nm (OD570) was measured using a microtiter plate reader (Dynex MRX-II).
(§3) Determination of GI50 was conducted thrice for each test compound. GI50 is expressed as mean±SD.

[2] = test system: NCI-H460 (non-small cell lung carcinoma cell); test: MTT antiproliferative assay (cell growth %, GI50), NCI-H460; assay type: cell-based; design: Cell growth (%) NCI-H460: unit of the concentration uncertain; details: for activity at 4000 µg/mL / activity at 20000 µg/mL / GI50: Homo sapiens; for activity at 4000 µg/mL: 4 mg/ml; for activity at 4000 µg/mL / activity at 20000 µg/mL / Cell growth (%) NCI-H460: 48 hours, MTT; for activity at 20000 µg/mL: 20 mg/ml; for SI NCI-H460: GI50 MRC-5 / GI50 NCI-H460
Protocol: as §1, §2, §3

[3] = test system: SF-268 (central nervous system carcinoma cell); test: MTT antiproliferative assay (cell growth %, GI50), SF-268; assay type: cell-based; design: Cell growth (%) SF-268: unit of the concentration uncertain; details: for Cell growth (%) SF-268: 48 hours, MTT; for SI SF-268: GI50 MRC-5 / GI50 SF-268; for GI50: Homo sapiens
Protocol: as §1, §2, §3

[4] = Determination of solubility in water; assay type: physicochemical
Protocol: Determination of solubility in water was conducted substantially according to the method as described in Vougogiannopoulou, K. et al. (2008), J. Med. Chem., 51:6421-6431. An excess amount of the respective test compound was added into water, followed by sonication for 5 minutes. The resultant mixture was stirred at ambient temperature (25±0.1° C.) overnight. Centrifugation at 4000 rpm and 25° C. was conducted for 5 minutes. Absorbance of the sample of the respective test compound was measured at 315-420 nm using a UV-VIS spectrophotometer (JASCO UV-Visible V570). For each test compound, a standard curve was generated by plotting concentrations of standard solutions and the corresponding absorbances. The absorbance of the sample of each test compound was then converted to solubility in water (μg/mL) using the corresponding standard curve.

[5] = test system: MRC-5 (human lung fibroblast cell); test: GI50 determination on normal cell line MRC-5; assay type: cell-based
Protocol: as §1, §2, §3

Row | Structure (SMILES) | activity at 4000 µg/mL ([1]; MCF7) [%] | activity at 20000 µg/mL ([1]; MCF7) [%] | activity at 4000 µg/mL ([2]; NCI-H460) [%] | activity at 20000 µg/mL ([2]; NCI-H460) [%] | also measured
1 | C/C(=N\OCCCCN1CCOCC1)c1ccc(Nc2c3ccccc3nc3occ(Cl)c23)cc1 [Compound 14h, (E)-1-(4-(3-Chlorofuro[2,3-b]quinolin-4-ylamino)phenyl)ethanone O-4-morpholinobutyl oxime] | 75 | -3 | 91 | 3 | 
2 | COc1ccc2c(Nc3ccc(/C(C)=N/OCCN(C)C)cc3)c3ccoc3nc2c1 [Compound 15b, (E)-1-(4-(7-Methoxyfuro[2,3-b]quinolin-4-ylamino)phenyl)ethanone O-2-(dimethylamino)ethyl oxime] | 67 | -1 | 75 | -1 | 
3 | COc1ccc2c(Nc3ccc(/C(C)=N/OCCCN)cc3)c3ccoc3nc2c1 [Compound 15c, (E)-1-(4-(7-Methoxyfuro[2,3-b]quinolin-4-ylamino)phenyl)ethanone O-3-aminopropyl oxime] | 100 | 18 | 105 | 16 | 
4 | COc1ccc2c(Nc3ccc(/C(C)=N/OCCCN(C)C)cc3)c3ccoc3nc2c1 [Compound 15d, (E)-1-(4-(7-Methoxyfuro[2,3-b]quinolin-4-ylamino)phenyl)ethanone O-3-(dimethylamino)propyl oxime] | 59 | 2 | 82 | 5 | 
5 | COc1ccc2c(Nc3ccc(/C(C)=N/OCCN4CCCC4)cc3)c3ccoc3nc2c1 [Compound 15e, (E)-1-(4-(7-Methoxyfuro[2,3-b]quinolin-4-ylamino)phenyl)ethanone O-2-(pyrrolidin-1-yl)ethyl oxime] | 63 | 3 | 69 | 5 | 
6 | COc1ccc2c(Nc3ccc(/C(C)=N/OCCN4CCCCC4)cc3)c3ccoc3nc2c1 [Compound 15f, (E)-1-(4-(7-Methoxyfuro[2,3-b]quinolin-4-ylamino)phenyl)ethanone O-2-(piperidin-1-yl)ethyl oxime] | 77 | 2 | 84 | 9 | 
7 | COc1ccc2c(Nc3ccc(/C(C)=N/OCCN4CCOCC4)cc3)c3ccoc3nc2c1 [Compound 15g, (E)-1-(4-(7-Methoxyfuro[2,3-b]quinolin-4-ylamino)phenyl)ethanone O-2-morpholinoethyl oxime] | 76 | 25 | 96 | 44 | 
8 | COc1ccc2c(Nc3ccc(/C(C)=N/OCCCCN4CCOCC4)cc3)c3ccoc3nc2c1 [Compound 15h, (E)-1-(4-(7-Methoxyfuro[2,3-b]quinolin-4-ylamino)phenyl)ethanone O-4-morpholinobutyl oxime] | 83 | 75 | 89 | 21 | 
9 | COc1ccc2c(Nc3ccc(/C(C)=N/OCCN(C)C)cc3)c3c(Cl)coc3nc2c1 [Compound 16b, (E)-1-(4-(3-Chloro-7-methoxyfuro[2,3-b]quinolin-4-ylamino)phenyl)ethanone O-2-(dimethylamino) ethyl oxime] |  |  |  |  | Cell growth (%) MCF-7 ([1]; 4 (unit uncertain)): 51%; Cell growth (%) MCF-7 ([1]; 20 (unit uncertain)): −2%; Cell growth (%) NCI-H460 ([2]; 4 (unit uncertain)): 74%; Cell growth (%) NCI-H460 ([2]; 20 (unit uncertain)): −1%; Cell growth (%) SF-268 ([3]; 4 (unit uncertain)): 102%; Cell growth (%) SF-268 ([3]; 20 (unit uncertain)): −1%
10 | COc1ccc2c(Nc3ccc(/C(C)=N/OCCCN)cc3)c3c(Cl)coc3nc2c1 [Compound 16c, (E)-1-(4-(3-Chloro-7-methoxyfuro[2,3-b]quinolin-4-ylamino)phenyl)ethanone O-3-aminopropyl oxime] | 101 | 3 | 91 | 8 | 
11 | COc1ccc2c(Nc3ccc(/C(C)=N/OCCCN(C)C)cc3)c3c(Cl)coc3nc2c1 [Compound 16d, (E)-1-(4-(3-Chloro-7-methoxyfuro[2,3-b]quinolin-4-ylamino)phenyl)ethanone O-3-(dimethylamino) propyl oxime] |  |  |  |  | Cell growth (%) MCF-7 ([1]; 4 (unit uncertain)): 66%; Cell growth (%) MCF-7 ([1]; 20 (unit uncertain)): 1%; Cell growth (%) NCI-H460 ([2]; 4 (unit uncertain)): 66%; Cell growth (%) NCI-H460 ([2]; 20 (unit uncertain)): 4%; Cell growth (%) SF-268 ([3]; 4 (unit uncertain)): 103%; Cell growth (%) SF-268 ([3]; 20 (unit uncertain)): 1%
12 | COc1ccc2c(Nc3ccc(/C(C)=N/OCCN4CCCC4)cc3)c3c(Cl)coc3nc2c1 [Compound 16e, (E)-1-(4-(3-Chloro-7-methoxyfuro[2,3-b]quinolin-4-ylamino)phenyl)ethanone O-2-(pyrrolidin-1-yl)ethyl oxime] | 55 | 1 | 53 | 5 | 
13 | COc1ccc2c(Nc3ccc(/C(C)=N/OCCN4CCCCC4)cc3)c3c(Cl)coc3nc2c1 [Compound 16f, (E)-1-(4-(3-Chloro-7-methoxyfuro[2,3-b]quinolin-4-ylamino)phenyl)ethanone O-2-(piperidin-1-yl)ethyl oxime] | 56 | -1 | 67 | 3 | 
14 | COc1ccc2c(Nc3ccc(/C(C)=N/OCCN4CCOCC4)cc3)c3c(Cl)coc3nc2c1 [Compound 16g, (E)-1-(4-(3-Chloro-7-methoxyfuro[2,3-b]quinolin-4-ylamino)phenyl)ethanone O-2-morpholinoethyl oxime] | 85 | 37 | 97 | 68 | 
15 | COc1ccc2c(Nc3ccc(/C(C)=N/OCCCCN4CCOCC4)cc3)c3c(Cl)coc3nc2c1 [Compound 16h, (E)-1-(4-(3-Chloro-7-methoxyfuro[2,3-b]quinolin-4-ylamino)phenyl)ethanone O-4-morpholinobutyl oxime] | 96 | 5 | 87 | 20 | 
16 | C/C(=N\OCCN)c1ccc(Nc2c3ccccc3nc3occc23)cc1.Cl [Hydrochloride salt of 13a, hydrochloride salt of (E)-1-(4-(furo[2,3-b]quinolin-4-ylamino)phenyl)ethanone O-2-aminoethyl oxime] |  |  |  |  | Solubility in water ([4]; 25±0.1° C., stirred overnight, UV-VIS): 1049 µg/mL; Solubility in water relative to compound 13a ([4]; fold versus compound 13a): about 17 times
17 | CC[C@@]1(O)C(=O)OCc2c1cc1n(c2=O)Cc2cc3ccccc3nc2-1 [camptothecin, reference compound] |  |  |  |  | SI MCF-7 [1]: 0.08; GI50 ([1]; MCF7, mean±SD, read-out: GI50 MCF-7): 11100 ± 610 nM; SI NCI-H460 [2]: 29.67; GI50 ([2]; NCI-H460, mean±SD, read-out: GI50 NCI-H460): 30 ± 3 nM; SI SF-268 [3]: 4.68; GI50 ([3]; SF-268, mean±SD, read-out: GI50 SF-268): 190 ± 6 nM; GI50 ([5]; MRC5, normal cell line, mean±SD, read-out: GI50 MRC-5): 890 ± 900 nM
18 | COc1cccc2c1C(=O)c1c(O)c3c(c(O)c1C2=O)C[C@@](O)(C(C)=O)C[C@@H]3O[C@H]1C[C@H](N)[C@H](O)[C@H](C)O1 [daunorubicin, reference compound] |  |  |  |  | SI MCF-7 [1]: 0.17; GI50 ([1]; MCF7, read-out: GI50 MCF-7): 5030 ± 50 nM; SI NCI-H460 [2]: 2.32; GI50 ([2]; NCI-H460, read-out: GI50 NCI-H460): 380 ± 40 nM; SI SF-268 [3]: 1.47; GI50 ([3]; SF-268, read-out: GI50 SF-268): 600 ± 20 nM; GI50 ([5]; MRC5, read-out: GI50 MRC-5): 880 ± 110 nM

Reference: patent publication US8952033B2, “4-anilinofuro[2,3-b]quinoline derivatives, their preparation processes, and pharmaceutical compositions comprising the same” (Kaohsiung Medical University, priority 2011, dated 2015)
